This experiment relates to DOHH2 cells. Kind of experiment: Cell proliferation assay (MTS) in DOHH2 cells, mechanism-based assay for BTK inhibition. Conditions: Homo sapiens, DOHH-2, 120 h incubation, 5000 cells/well. An excerpt:
Cell Proliferation Assays
MTS testing kit was purchased from Promega. The DMEM, Fetal bovine serum and Penicillin-Streptomycin were purchased from Gibco. Dimethyl sulfoxide (DMSO) was purchased from Sigma.
To investigate whether a compound is able to inhibit the activity of BTK in cells, a mechanism-based assay using DOHH2 (DSMZ catalog#: ACC47) and Mino (ATCC® Number CRL-3000™) cells was developed. In this assay, inhibition of BTK was detected by the inhibition of DOHH2 and Mino cell proliferations. DOHH2 or Mino cells were cultured in culture flasks to 40-80% confluence in RPMI-1640 plus 10% fetal bovine serum. C ells were collected and plated onto 96-well plates at desired cell density (DOHH2: 5000 cells/well; Mino: 10000 cells/well). Plates were incubated overnight at 37° C., with 5% CO2 to adhere. Compounds were added to the plates, and the final compound concentrations were 10000, 3333, 1111, […], 41, 14, 4.6 and 1.5 nM. Plates were placed at 37° C., with 5% CO2 for 120 h (DOHH2) or 72 h (Mino). 20 μl MTS/100 μl medium mixture solution were added to each well and the plates were incubated for exactly 2 hours. The reaction was stopped by adding 25 μl 10% SDS per well.
Select compounds prepared as described above were assayed according to the biological procedures described herein.

Broadly, the IC50 is the concentration that gives 50% inhibition. A low value points to greater potency in that assay. In turn, `C=CC(=O)N1CCC[C@H](c2nn(-c3ccc(Oc4ccccc4F)cc3)c3c(N)n[nH]c(=O)c23)C1` [Example 59, (S)-3-(1-acryloylpiperidin-3-yl)-7-amino-1-(4-(2-fluorophenoxy)phenyl)-1,5-dihydro-4H-pyrazolo [3,4-d]pyridazin-4-one] gave an IC50 of 248 nM.

`C=CC(=O)N1CC[C@H](c2cn(-c3ccc(Oc4ccccc4F)cc3)c3c(N)n[nH]c(=O)c23)C1` [Example 23, (R)-3-(1-acryloylpyrrolidin-3-yl)-7-amino-1-(4-(2-fluorophenoxy)phenyl)-1,5-dihydro-4H-pyrrolo[2,3-d]pyridazin-4-one] had an IC50 of 42 nM.

`C=CC(=O)N1CCC[C@H](c2nn(-c3ccc(Oc4cccc(F)c4F)cc3)c3c(N)n[nH]c(=O)c23)C1` [Example 62, (S)-3-(1-acryloylpiperidin-3-yl)-7-amino-1-(4-(2,3-difluorophenoxy)phenyl)-1,5-dihydro-4H-pyrazolo[3,4-d]pyridazin-4-one] had an IC50 of 147 nM.

For `CCN1CC[C@@H]1/C=C/C(=O)N1CCC[C@@H](c2cn(-c3ccc(Oc4ccccc4F)cc3)c3c(N)n[nH]c(=O)c23)C1` [Example 110, 7-amino-3-((S)-1-((E)-3-((R)-1-ethylazetidin-2-yl)acryloyl)piperidin-3-yl)-1-(4-(2-fluorophenoxy)phenyl)-1,5-dihydro-4H-pyrrolo[2,3-d]pyridazin-4-one], half-maximal inhibition (IC50) required 123 nM.

In turn, `Nc1n[nH]c(=O)c2c([C@@H]3CCN(C(=O)/C=C/[C@H]4CCN4)C3)cn(-c3ccc(Oc4ccccc4)cc3)c12` [Example 97, 7-amino-3-((S)-1-((E)-3-((R)-azetidin-2-yl)acryloyl)pyrrolidin-3-yl)-1-(4-phenoxyphenyl)-1,5-dihydro-4H-pyrrolo[2,3-d]pyridazin-4-one] came in with an IC50 of 701 nM.

In turn, `C=CC(=O)N1CC[C@H](c2cn(-c3ccc(Oc4cccc(F)c4)cc3)c3c(N)n[nH]c(=O)c23)C1` [Example 24, (R)-3-(1-acryloylpyrrolidin-3-yl)-7-amino-1-(4-(3-fluorophenoxy)phenyl)-1,5-dihydro-4H-pyrrolo[2,3-d]pyridazin-4-one] displayed an IC50 of 373 nM.

Regarding `C=CC(=O)N1CC[C@H](c2cn(-c3ccc(Oc4c(F)cccc4F)cc3)c3c(N)n[nH]c(=O)c23)C1` [Example 27, (R)-3-(1-acryloylpyrrolidin-3-yl)-7-amino-1-(4-(2,6-difluorophenoxy)phenyl)-1,5-dihydro-4H-pyrrolo[2,3-d]pyridazin-4-one], 47 nM corresponded to half-maximal inhibition (IC50).

In turn, `C=CC(=O)N1CC[C@@H](c2cn(-c3ccc(Oc4ccccc4)cc3)c3c(N)n[nH]c(=O)c23)C1` [Example 9, (S)-3-(1-acryloylpyrrolidin-3-yl)-7-amino-1-(4-phenoxyphenyl)-1,5-dihydro-4H-pyrrolo[2,3-d]pyridazin-4-one] registered an IC50 of 32 nM.

Turning to `CC#CC(=O)N1CCC[C@H](c2cn(-c3ccc(Oc4ccccc4)cc3)c3c(N)n[nH]c(=O)c23)C1` [Example 72, (R)-7-amino-3-(1-(but-2-ynoyl)piperidin-3-yl)-1-(4-phenoxyphenyl)-1,5-dihydro-4H-pyrrolo[2,3-d]pyridazin-4-one], half-maximal inhibition (IC50) was put at 260 nM.

Compound `C=CC(=O)N1CCC[C@H](c2nn(-c3ccc(Oc4c(F)cccc4F)cc3)c3c(N)n[nH]c(=O)c23)C1` [Example 63, (S)-3-(1-acryloylpiperidin-3-yl)-7-amino-1-(4-(2,6-difluorophenoxy)phenyl)-1,5-dihydro-4H-pyrazolo[3,4-d]pyridazin-4-one] displayed a concentration for half-maximal inhibition (IC50) of 189 nM.

As for `CC#CC(=O)N1CCC(c2cn(-c3ccc(Oc4c(F)cccc4F)cc3)c3c(N)n[nH]c(=O)c23)C1` (stereo not drawn) [Example 4, 7-amino-3-(1-(but-2-ynoyl)pyrrolidin-3-yl)-1-(4-(2,6-difluorophenoxy)phenyl)-1,5-dihydro-4H-pyrrolo[2,3-d]pyridazin-4-one], 250 nM corresponded to half-maximal inhibition (IC50).

On to `C=CC(=O)N1CCC(c2nn(-c3ccc(Oc4ccccc4)cc3)c3c(N)n[nH]c(=O)c23)C1` (stereo not drawn) [Example 5, 3-(1-acryloylpyrrolidin-3-yl)-7-amino-1-(4-phenoxyphenyl)-1,5-dihydro-4H-pyrazolo[3,4-d]pyridazin-4-one], for which half-maximal inhibition (IC50) was put at 25 nM.

`CC#CC(=O)N1CC[C@H](c2cn(-c3ccc(Oc4ccccc4)cc3)c3c(N)n[nH]c(=O)c23)C1` [Example 68, (R)-7-amino-3-(1-(but-2-ynoyl)pyrrolidin-3-yl)-1-(4-phenoxyphenyl)-1,5-dihydro-4H-pyrrolo [2,3-d]pyridazin-4-one] gave an IC50 of 146 nM.

`COC/C=C/C(=O)N1CC[C@@H](c2cn(-c3ccc(Oc4ccccc4)cc3)c3c(N)n[nH]c(=O)c23)C1` [Example 91, (S,E)-7-amino-3-(1-(4-methoxybut-2-enoyl)pyrrolidin-3-yl)-1-(4-phenoxyphenyl)-1,5-dihydro-4H-pyrrolo[2,3-d]pyridazin-4-one] yielded an IC50 of 640 nM.

`CC#CC(=O)N1CCC[C@@H](c2nn(-c3ccc(Oc4ccccc4)cc3)c3c(N)n[nH]c(=O)c23)C1` [Example 69, (R)-7-amino-3-(1-(but-2-ynoyl)piperidin-3-yl)-1-(4-phenoxyphenyl)-1,5-dihydro-4H-pyrazolo [3,4-d]pyridazin-4-one] returned an IC50 of 863 nM.

`CC#CC(=O)N1CC[C@H](c2cn(-c3ccc(Oc4ccccc4F)cc3)c3c(N)n[nH]c(=O)c23)C1` [Example 76, (R)-7-amino-3-(1-(but-2-ynoyl)pyrrolidin-3-yl)-1-(4-(2-fluorophenoxy)phenyl)-1,5-dihydro-4H-pyrrolo[2,3-d]pyridazin-4-one]: the IC50 turned out to be 124 nM.

Regarding `CC#CC(=O)N1CCC(c2nn(-c3ccc(Oc4c(F)cccc4F)cc3)c3c(N)n[nH]c(=O)c23)C1` (stereo not drawn) [Example 8, 7-amino-3-(1-(but-2-ynoyl)pyrrolidin-3-yl)-1-(4-(2,6-difluorophenoxy)phenyl)-1,5-dihydro-4H-pyrazolo[3,4-d]pyridazin-4-one], half-maximal inhibition (IC50) required 304 nM.

As for `C=CC(=O)N1CCC[C@@H](c2cn(-c3ccc(Oc4c(F)cccc4F)cc3)c3c(N)n[nH]c(=O)c23)C1` [Example 33, (S)-3-(1-acryloylpiperidin-3-yl)-7-amino-1-(4-(2,6-difluorophenoxy)phenyl)-1,5-dihydro-4H-pyrrolo[2,3-d]pyridazin-4-one], the IC50 stood at 221 nM.

For `CC#CC(=O)N1CCC[C@H](c2cn(-c3ccc(Oc4c(F)cccc4F)cc3)c3c(N)n[nH]c(=O)c23)C1` [Example 88, (R)-7-amino-3-(1-(but-2-ynoyl)piperidin-3-yl)-1-(4-(2,6-difluorophenoxy)phenyl)-1,5-dihydro-4H-pyrrolo[2,3-d]pyridazin-4-one], the IC50 was found to be 432 nM.

As for `C=CC(=O)N1CC(c2cn(-c3ccc(Oc4ccccc4F)cc3)c3c(N)n[nH]c(=O)c23)C1` [Example 111, 3-(1-acryloylazetidin-3-yl)-7-amino-1-(4-(2-fluorophenoxy)phenyl)-1,5-dihydro-4H-pyrrolo [2,3-d]pyridazin-4-one], the IC50 amounted to 261 nM.

Compound `CC#CC(=O)N1CCC[C@@H](c2cn(-c3ccc(Oc4ccccc4F)cc3)c3c(N)n[nH]c(=O)c23)C1` [Example 79, (S)-7-amino-3-(1-(but-2-ynoyl)piperidin-3-yl)-1-(4-(2-fluorophenoxy)phenyl)-1,5-dihydro-4H-pyrrolo[2,3-d]pyridazin-4-one] came in with an IC50 of 164 nM.

Consider `COC/C=C/C(=O)N1CCC[C@@H](c2cn(-c3ccc(Oc4ccccc4F)cc3)c3c(N)n[nH]c(=O)c23)C1` [Example 102, (S,E)-7-amino-1-(4-(2-fluorophenoxy)phenyl)-3-(1-(4-methoxybut-2-enoyl)piperidin-3-yl)-1,5-dihydro-4H-pyrrolo[2,3-d]pyridazin-4-one], for which the IC50 worked out at 319 nM.

Consider `C=CC(=O)N1CCC[C@@H](c2cn(-c3ccc(Oc4ccccc4)cc3)c3c(N)n[nH]c(=O)c23)C1` [Example 11, (S)-3-(1-acryloylpiperidin-3-yl)-7-amino-1-(4-phenoxyphenyl)-1,5-dihydro-4H-pyrrolo[2,3-d]pyridazin-4-one], for which inhibition was half-maximal at 40 nM (IC50).

`C=CC(=O)N1CC(c2cn(-c3ccc(Oc4ccccc4)cc3)c3c(N)n[nH]c(=O)c23)C1` [Example 114, 3-(1-acryloylazetidin-3-yl)-7-amino-1-(4-phenoxyphenyl)-1,5-dihydro-4H-pyrrolo[2,3-d] pyridazin-4-one] displayed an IC50 of 473 nM.

As to `CC#CC(=O)N1CC[C@H](c2cn(-c3ccc(Oc4c(F)cccc4F)cc3)c3c(N)n[nH]c(=O)c23)C1` [Example 84, (R)-7-amino-3-(1-(but-2-ynoyl)pyrrolidin-3-yl)-1-(4-(2,6-difluorophenoxy)phenyl)-1,5-dihydro-4H-pyrrolo[2,3-d]pyridazin-4-one], the IC50 came to 369 nM.

In turn, `C=CC(=O)N1CC[C@@H](c2cn(-c3ccc(Oc4cccc(F)c4)cc3)c3c(N)n[nH]c(=O)c23)C1` [Example 18, (S)-3-(1-acryloylpyrrolidin-3-yl)-7-amino-1-(4-(3-fluorophenoxy)phenyl)-1,5-dihydro-4H-pyrrolo[2,3-d]pyridazin-4-one] had an IC50 of 181 nM.

With `C=CC(=O)N1CCC[C@H](c2cn(-c3ccc(Oc4cccc(F)c4)cc3)c3c(N)n[nH]c(=O)c23)C1` [Example 36, (R)-3-(1-acryloylpiperidin-3-yl)-7-amino-1-(4-(3-fluorophenoxy)phenyl)-1,5-dihydro-4H-pyrrolo [2,3-d]pyridazin-4-one], the IC50 is 585 nM.

For the origin of these results see US10800785B2, “Substituted pyrrolo[2,3-d]pyridazin-4-ones and pyrazolo[3,4-d]pyridazin-4-ones as protein kinase inhibitors” (Shanghai Fochon Pharmaceutical Co., Ltd., priority 2016, dated 2020).
